From ChEMBL document CHEMBL4304823, “Photo-induced synthesis of Axinastatin 3 analogs, the secondary structures and their in vitro antitumor activities” (Bioorg Med Chem Lett, 2019)
Values after ≈ are worked out from the molar mass of the structure shown. Active and inactive are the calls of the source. The calls are words filed in the database; no cut-off is given here.

How the values were obtained:
HepG2 [1] = assay: Induction of cell death in human HepG2 cells at 40 uM measured after 48 hrs by fluorescence inversion microscopy analysis; format: functional, cell-based
HepG2 [2] = assay: Induction of cell morphological changes in human HepG2 cells assessed as decrease in cell number at 40 uM measured after 0 to 48 hrs by fluorescence inversion microscopy analysis; format: functional, cell-based
HepG2 [3] = assay: Induction of cell morphological changes in human HepG2 cells assessed as change in normal spindle cell shape to rounder cells with weak adhesion ability at 40 uM measured after 0 to 48 hrs by fluorescence inversion microscopy analysis; format: functional, cell-based
HeLa = assay: Antitumour activity against human HeLa cells assessed as reduction in cell viability by MTT assay; format: functional, cell-based
L929 = assay: Cytotoxicity against mouse L929 cells assessed as reduction in cell viability measured after 48 hrs; format: cell-based; details: for IC50: Mus musculus, L929, 48 h; for Activity: mouse, l929, 48 h
HepG2 [4] = assay: Antitumour activity against human HepG2 cells assessed as reduction in cell viability incubated for 48 hrs by MTT assay; format: functional, cell-based; details: HepG2, 48 h

IC50 (HeLa) | IC50 (HepG2 [4]) | Structure (SMILES) | Activity (HepG2 [1]) | Activity (HepG2 [2]) | Activity (HepG2 [3]) | IC50 (L929) | Activity (L929)
– | – | CC[C@H](C)[C@@H]1NC(=O)CN2C(=O)c3ccccc3[C@@]2(O)CN(Cc2ccccc2)C(=O)[C@H]2CCCN2C(=O)[C@H](C(C)C)NC(=O)[C@H]2CCCN2C(=O)[C@H](CC(C)C)NC1=O | Active | Active | Active | – | –
89 µg/mL (≈ 107 µM) | 72.6 µg/mL (≈ 87.6 µM) | CC[C@H](C)[C@@H]1NC(=O)CN2C(=O)c3ccccc3[C@]2(O)CN(Cc2ccccc2)C(=O)[C@@H]2CCCN2C(=O)[C@H](C(C)C)NC(=O)[C@@H]2CCCN2C(=O)[C@H](CC(C)C)NC1=O | – | – | – | 86.2 µg/mL (≈ 104 µM) | Dose-dependent effect
280 µg/mL (≈ 285 µM) | 64.5 µg/mL (≈ 65.6 µM) | CCNC(=O)CC[C@@H]1NC(=O)CN2C(=O)c3ccccc3[C@@]2(O)CN(Cc2ccccc2)C(=O)[C@H]2CCCN2C(=O)[C@H](C(C)C)NC(=O)[C@H]2CCCN2C(=O)[C@H](CC(C)C)NC(=O)[C@H]([C@@H](C)CC)NC1=O | – | – | – | 61.1 µg/mL (≈ 62 µM) | Dose-dependent effect
> 400 µg/mL | 102 µg/mL (≈ 119 µM) | CC(=O)O[C@H]1C(=O)[C@@]2(C)[C@H]([C@H](OC(=O)c3ccccc3)[C@]3(O)C[C@H](OC(=O)[C@H](O)[C@@H](NC(=O)c4ccccc4)c4ccccc4)C(C)=C1C3(C)C)[C@]1(OC(C)=O)CO[C@@H]1C[C@@H]2O [PACLITAXEL] | – | – | – | 33 µg/mL (≈ 38.6 µM) | –
41.2 µg/mL (≈ 49.7 µM) | 38.4 µg/mL (≈ 46.4 µM) | CC[C@H](C)[C@@H]1NC(=O)CN2C(=O)c3ccccc3[C@@]2(O)CN(Cc2ccccc2)C(=O)[C@@H]2CCCN2C(=O)[C@H](C(C)C)NC(=O)[C@@H]2CCCN2C(=O)[C@H](CC(C)C)NC1=O | – | – | – | 50.5 µg/mL (≈ 61 µM) | Dose-dependent effect
